# Experimental data as given in the supplement of paper PMC10307832.
# Tests used:
# Assay in all cases: relative viability (nuclei count vs DMSO), 5 days (fraction); higher = more cells survive
# NCI-H358 = system: NCI-H358
# How it was run: (§1)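 Dosing by pin tool came one day after lung cancer cell lines were seeded in 1536-well plates, using either one drug or a fixed anchor-drug dose plus five library-drug doses (not always all listed) in √10 steps. After 5 days, nuclei were counted on 4× images. Relative viability is treated-well nuclei count divided by vehicle-well nuclei count, and values are medians of duplicate plates.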
# NCI-H650 = system: NCI-H650
# How it was run: as §1
# UMC-11 = system: UMC-11
# How it was run: as §1
# NCI-H2126 = system: NCI-H2126
# How it was run: as §1
# EPLC-272H = system: EPLC-272H
# How it was run: as §1
# NCI-H2347 = system: NCI-H2347
# How it was run: as §1
# HCC-15 = system: HCC-15
# How it was run: as §1
# ABC-1 = system: ABC-1
# How it was run: as §1
# NCI-H1993 = system: NCI-H1993
# How it was run: as §1
# COR-L23 = system: COR-L23
# How it was run: as §1
# SW 1573 = system: SW 1573
# How it was run: as §1
# LU99A = system: LU99A
# How it was run: as §1
# HOP-62 = system: HOP-62
# How it was run: as §1
# LC-2-ad = system: LC-2-ad
# How it was run: as §1
# NCI-H1651 = system: NCI-H1651
# How it was run: as §1
# NCI-H2023 = system: NCI-H2023
# How it was run: as §1
# NCI-H1915 = system: NCI-H1915
# How it was run: as §1
# NCI-H838 = system: NCI-H838
# How it was run: as §1
# NCI-H2085 = system: NCI-H2085
# How it was run: as §1
# NCI-H1355 = system: NCI-H1355
# How it was run: as §1
# HARA = system: HARA
# How it was run: as §1
# PC-14 = system: PC-14
# How it was run: as §1
structure (smiles),measurement,setting,value
O=c1cc(-c2cccc3c2Sc2ccccc2S3)oc(N2CCOCC2)c1 + COc1cc2c(Oc3ccc(NC(=O)C4(C(=O)Nc5ccc(F)cc5)CC4)cc3F)ccnc2cc1OCCCN1CCOCC1 [Foretinib] (partner 0.25 µM),relative viability,NCI-H358; first compound 0.08 µM,0.622
same,relative viability,NCI-H358; first compound 0.253 µM,0.753
same,relative viability,NCI-H358; first compound 0.8 µM,0.635
same,relative viability,NCI-H358; first compound 2.53 µM,0.825
same,relative viability,NCI-H358; first compound 8 µM,0.797
same,relative viability,NCI-H650; first compound 0.08 µM,0.998
same,relative viability,NCI-H650; first compound 0.253 µM,1.09
same,relative viability,NCI-H650; first compound 0.8 µM,1.04
same,relative viability,NCI-H650; first compound 8 µM,1.01
same,relative viability,UMC-11; first compound 0.08 µM,1.04
same,relative viability,UMC-11; first compound 0.253 µM,1.03
same,relative viability,UMC-11; first compound 0.8 µM,1.19
same,relative viability,UMC-11; first compound 2.53 µM,1.03
same,relative viability,UMC-11; first compound 8 µM,1.31
same,relative viability,NCI-H2126; first compound 0.08 µM,1.22
same,relative viability,NCI-H2126; first compound 0.253 µM,1.39
same,relative viability,NCI-H2126; first compound 0.8 µM,1.02
same,relative viability,NCI-H2126; first compound 2.53 µM,1.03
same,relative viability,NCI-H2126; first compound 8 µM,0.994
same,relative viability,EPLC-272H; first compound 0.08 µM,0.6
same,relative viability,EPLC-272H; first compound 0.253 µM,0.624
same,relative viability,EPLC-272H; first compound 0.8 µM,0.897
same,relative viability,EPLC-272H; first compound 2.53 µM,0.675
same,relative viability,EPLC-272H; first compound 8 µM,0.572
same,relative viability,NCI-H2347; first compound 0.08 µM,0.903
same,relative viability,NCI-H2347; first compound 0.253 µM,0.841
same,relative viability,NCI-H2347; first compound 0.8 µM,0.682
same,relative viability,NCI-H2347; first compound 2.53 µM,0.679
same,relative viability,NCI-H2347; first compound 8 µM,0.892
same,relative viability,HCC-15; first compound 0.08 µM,1.01
same,relative viability,HCC-15; first compound 0.253 µM,1.14
same,relative viability,HCC-15; first compound 0.8 µM,1
same,relative viability,HCC-15; first compound 2.53 µM,1.08
same,relative viability,HCC-15; first compound 8 µM,1.11
same,relative viability,ABC-1; first compound 0.08 µM,1.25
same,relative viability,ABC-1; first compound 0.253 µM,1.17
same,relative viability,ABC-1; first compound 0.8 µM,1.2
same,relative viability,ABC-1; first compound 2.53 µM,1.04
same,relative viability,ABC-1; first compound 8 µM,1.31
same,relative viability,NCI-H1993; first compound 0.08 µM,0.705
same,relative viability,NCI-H1993; first compound 0.253 µM,0.796
same,relative viability,NCI-H1993; first compound 0.8 µM,0.586
same,relative viability,NCI-H1993; first compound 2.53 µM,0.75
same,relative viability,NCI-H1993; first compound 8 µM,0.68
same,relative viability,COR-L23; first compound 0.08 µM,0.946
same,relative viability,COR-L23; first compound 0.253 µM,1.11
same,relative viability,COR-L23; first compound 0.8 µM,1.1
same,relative viability,COR-L23; first compound 2.53 µM,0.971
same,relative viability,COR-L23; first compound 8 µM,1.17
same,relative viability,SW 1573; first compound 0.08 µM,0.8
same,relative viability,SW 1573; first compound 0.253 µM,0.916
same,relative viability,SW 1573; first compound 0.8 µM,0.783
same,relative viability,SW 1573; first compound 2.53 µM,0.989
same,relative viability,SW 1573; first compound 8 µM,1
same,relative viability,LU99A; first compound 0.08 µM,0.825
same,relative viability,LU99A; first compound 0.253 µM,0.841
same,relative viability,LU99A; first compound 0.8 µM,1.04
same,relative viability,LU99A; first compound 2.53 µM,0.829
same,relative viability,LU99A; first compound 8 µM,1.13
same,relative viability,HOP-62; first compound 0.08 µM,1.23
same,relative viability,HOP-62; first compound 0.253 µM,1.27
same,relative viability,HOP-62; first compound 0.8 µM,1.25
same,relative viability,HOP-62; first compound 2.53 µM,1.02
same,relative viability,HOP-62; first compound 8 µM,1.14
same,relative viability,LC-2-ad; first compound 0.08 µM,0.888
same,relative viability,LC-2-ad; first compound 0.253 µM,0.97
same,relative viability,LC-2-ad; first compound 0.8 µM,0.94
same,relative viability,LC-2-ad; first compound 2.53 µM,0.875
same,relative viability,LC-2-ad; first compound 8 µM,0.873
same,relative viability,NCI-H1651; first compound 0.08 µM,0.798
same,relative viability,NCI-H1651; first compound 0.253 µM,0.909
same,relative viability,NCI-H1651; first compound 0.8 µM,0.861
same,relative viability,NCI-H1651; first compound 2.53 µM,0.754
same,relative viability,NCI-H1651; first compound 8 µM,0.979
same,relative viability,NCI-H2023; first compound 0.08 µM,0.688
same,relative viability,NCI-H2023; first compound 0.253 µM,0.889
same,relative viability,NCI-H2023; first compound 0.8 µM,0.965
same,relative viability,NCI-H2023; first compound 8 µM,0.861
same,relative viability,NCI-H1915; first compound 0.08 µM,1.21
same,relative viability,NCI-H1915; first compound 0.253 µM,1.2
same,relative viability,NCI-H1915; first compound 0.8 µM,1.08
same,relative viability,NCI-H1915; first compound 2.53 µM,1.06
same,relative viability,NCI-H1915; first compound 8 µM,1.11
same,relative viability,NCI-H838; first compound 0.08 µM,0.995
same,relative viability,NCI-H838; first compound 0.253 µM,1.25
same,relative viability,NCI-H838; first compound 0.8 µM,0.88
same,relative viability,NCI-H838; first compound 2.53 µM,0.878
same,relative viability,NCI-H838; first compound 8 µM,0.972
same,relative viability,NCI-H2085; first compound 0.08 µM,0.907
same,relative viability,NCI-H2085; first compound 0.253 µM,1.21
same,relative viability,NCI-H2085; first compound 0.8 µM,0.975
same,relative viability,NCI-H2085; first compound 2.53 µM,0.771
same,relative viability,NCI-H2085; first compound 8 µM,0.845
same,relative viability,NCI-H1355; first compound 0.08 µM,0.999
same,relative viability,NCI-H1355; first compound 0.253 µM,1.12
same,relative viability,NCI-H1355; first compound 0.8 µM,0.861
same,relative viability,NCI-H1355; first compound 2.53 µM,0.977
same,relative viability,NCI-H1355; first compound 8 µM,0.926
same,relative viability,HARA; first compound 0.08 µM,0.934
same,relative viability,HARA; first compound 0.253 µM,0.956
same,relative viability,HARA; first compound 0.8 µM,0.961
same,relative viability,HARA; first compound 2.53 µM,0.898
same,relative viability,HARA; first compound 8 µM,0.777
same,relative viability,PC-14; first compound 0.08 µM,0.95
same,relative viability,PC-14; first compound 0.253 µM,1.29
same,relative viability,PC-14; first compound 0.8 µM,0.924
same,relative viability,PC-14; first compound 2.53 µM,0.961
same,relative viability,PC-14; first compound 8 µM,0.966
